In patent US20240166626A1, “Compounds and Methods for Preventing, Treating, or Ameliorating Airway Disease” (THOMAS JEFFERSON UNIVERSITY, priority 2021, published 2024):

Molecular target: β2AR (Homo sapiens, UniProt P07550)
Test: BRET analysis of β-arrestin2 binding to the β2AR in HEK 293 cells
Format: cell-based
Protocol: Schematic of screening methodologies for cAMP production and β-arrestin binding. Cells were treated with the unbiased beta-agonist isoproterenol (ISO)±test compounds. The primary high throughput screen utilized a luciferase-based cAMP biosensor, GLOSENSORTM (Promega), and an enzyme complementation-based assay, […]® (DiscoveRx). Independent secondary screening utilized a cAMP ELISA and BRET for β-arrestin recruitment. […] Secondary screen for cAMP production by ELISA. […] Cells were lysed and cAMP production was measured. […] Dose response curve for DFPQ as measured by BRET. […] Data for dose response curve was taken 12 min post ISO addition. n=3. […] Cells were lysed and cAMP production was measured by ELISA. […] Cells were read every 2 min post agonist addition. […] Cells were read every three minutes for 18 minutes on a PolarStar Optima plate reader (BMG) to establish peak signal. […] Luminescence was determined at room temperature (23-25° C.) on a PolarStar Optima plate reader (BMG). […] Relative assay bias was calculated from the ratio of normalized cAMP and arrestin recruitment responses. […] BRET was measured using a Tecan Infinite F500 microplate reader. […] Bound [35 S]GTPγS was collected by rapid filtration on GF/B filters, washed 4 times with 4 ml of cold GTPγS wash buffer and analyzed by liquid scintillation counting. […] Band intensity was measured by densitometry using ImageJ. […]

Sequence of β2AR (P07550 whole entry): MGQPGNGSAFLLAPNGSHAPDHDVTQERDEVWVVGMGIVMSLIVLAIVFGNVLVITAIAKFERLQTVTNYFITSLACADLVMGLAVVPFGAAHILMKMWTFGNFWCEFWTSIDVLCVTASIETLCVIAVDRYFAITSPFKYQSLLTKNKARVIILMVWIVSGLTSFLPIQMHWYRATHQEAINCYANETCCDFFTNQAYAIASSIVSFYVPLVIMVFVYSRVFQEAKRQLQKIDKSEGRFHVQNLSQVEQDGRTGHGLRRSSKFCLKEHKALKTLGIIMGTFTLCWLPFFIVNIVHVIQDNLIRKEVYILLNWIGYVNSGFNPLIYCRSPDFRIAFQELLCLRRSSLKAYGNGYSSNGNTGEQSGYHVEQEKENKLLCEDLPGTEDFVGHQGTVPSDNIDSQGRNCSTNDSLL

- β-arrestin2 recruitment to the β2AR (10 μM DFPQ, over the measured time course, FIG. 2A): fully inhibited
- mode of inhibition, global curve fitting and Schild analysis of ISO dose response curves (β-arrestin recruitment readout, FIG. 1D): non-competitive inhibition
SMILES: Fc1ccc(Nc2nc(NC3CCCCC3)c3ccccc3n2)cc1F [DFPQ, N^4-cyclohexyl-N^2-(3,4-difluorophenyl)quinazoline-2,4-diamine]
